From ChEMBL document CHEMBL1201862, “PubChem BioAssay data set” (2004)
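Five concentrations, 48 hours, 96-well plates. Abbreviation: GI50, concentration required for 50% inhibition of growth.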 Calls of active or inactive are those of the source. No stated cut-off is given here; in the data, active = GI50 up to about 1.1 µM and inactive = higher.

Legend:
Assay in all cases: NCI-60 cell line screen, 48 h
A498 = system: A498
SK-OV-3 = system: SK-OV-3
SK-MEL-2 = system: SK-MEL-2
IGROV-1 = system: IGROV-1
SK-MEL-5 = system: SK-MEL-5
SNB-19 = system: SNB-19
Hs-578T = system: Hs-578T
OVCAR-3 = system: OVCAR-3
EKVX = system: EKVX
HCC 2998 = system: HCC 2998
786-0 = system: 786-0
SK-MEL-28 = system: SK-MEL-28
CCRF-CEM = system: CCRF-CEM
HT-29 = system: HT-29
NCI-H522 = system: NCI-H522
K562 = system: K562
T47D = system: T47D
RPMI-8226 = system: RPMI-8226
BT-549 = system: BT-549

Measured: GI50

COC1=CCC2=C(CCN(C(=O)C3CC3)C2Cc2ccc(OC)c(O)c2)C1 (stereo not drawn)
inactive: A498 68.5 µM | SK-OV-3 > 100 µM | SK-MEL-2 38.3 µM | IGROV-1 52 µM | SK-MEL-5 28.6 µM | SNB-19 > 100 µM | Hs-578T 69.2 µM | OVCAR-3 45.4 µM | EKVX 47.1 µM | HCC 2998 35.1 µM | 786-0 92.9 µM | SK-MEL-28 31.8 µM | CCRF-CEM 34 µM | HT-29 45.9 µM | NCI-H522 28.8 µM | K562 25.8 µM | T47D 21 µM | RPMI-8226 34.2 µM

Oc1ccc2ccccc2c1NCn1nc(CCCCCCCCc2nn(CNc3c(O)ccc4ccccc34)c(=S)o2)oc1=S
inactive: A498 > 100 µM | SK-OV-3 > 100 µM | SK-MEL-2 > 100 µM | IGROV-1 6.7 µM | SK-MEL-5 44.5 µM | SNB-19 > 100 µM | EKVX > 100 µM | HCC 2998 > 100 µM | 786-0 > 100 µM | SK-MEL-28 > 100 µM | BT-549 > 100 µM | HT-29 25.5 µM | NCI-H522 35.1 µM | K562 > 100 µM | RPMI-8226 39.6 µM

O=C(CCNC(=O)OCc1ccccc1)OCCCNC(=O)OCc1ccccc1
inactive: SK-OV-3 > 100 µM | IGROV-1 > 100 µM | SK-MEL-5 > 100 µM | SNB-19 > 100 µM | Hs-578T > 100 µM | OVCAR-3 > 100 µM | HCC 2998 > 100 µM | 786-0 > 100 µM | SK-MEL-28 > 100 µM | CCRF-CEM > 100 µM | BT-549 > 100 µM | HT-29 > 100 µM | NCI-H522 > 100 µM | K562 > 100 µM | T47D > 100 µM | RPMI-8226 > 100 µM

CCN(C(=S)N[C@H](C(=O)N[C@@H](C)C(=O)OC)C(C)C)c1ccccc1
inactive: SK-OV-3 > 100 µM | SK-MEL-2 > 100 µM | IGROV-1 25.8 µM | SK-MEL-5 71.4 µM | SNB-19 > 100 µM | OVCAR-3 > 100 µM | EKVX > 100 µM | HCC 2998 > 100 µM | 786-0 59.7 µM | SK-MEL-28 > 100 µM | CCRF-CEM 27.8 µM | BT-549 > 100 µM | HT-29 31.5 µM | NCI-H522 16.6 µM | K562 22.7 µM | T47D > 100 µM | RPMI-8226 63.2 µM

COc1ccccc1C(=O)c1c(N2CCCCC2)c(=O)c1=O
inactive: A498 > 100 µM | SK-OV-3 > 100 µM | SK-MEL-2 > 100 µM | IGROV-1 > 100 µM | SK-MEL-5 > 100 µM | SNB-19 > 100 µM | OVCAR-3 > 100 µM | EKVX > 100 µM | HCC 2998 > 100 µM | 786-0 > 100 µM | SK-MEL-28 > 100 µM | CCRF-CEM > 100 µM | BT-549 > 100 µM | HT-29 > 100 µM | NCI-H522 59.3 µM | K562 > 100 µM | RPMI-8226 92.7 µM

CC(=O)O[C@H]1C(=O)[C@@]2(C)[C@H]([C@H](OC(=O)c3ccccc3)[C@@]3(O)C[C@H](O)C(C)=C1C3(C)C)[C@]1(OC(C)=O)CO[C@@H]1C[C@@H]2O
inactive: SK-OV-3 22.7 µM | SK-MEL-2 46.9 µM | IGROV-1 19.5 µM | SK-MEL-5 35.8 µM | SNB-19 69.3 µM | Hs-578T 19 µM | OVCAR-3 22.2 µM | EKVX > 100 µM | 786-0 51.5 µM | SK-MEL-28 64.9 µM | CCRF-CEM 46.2 µM | BT-549 32.4 µM | HT-29 23.3 µM | NCI-H522 17 µM | K562 55.8 µM | T47D > 100 µM | RPMI-8226 13.7 µM

CCOC(=O)C(NC(=O)c1ccco1)(Nc1nc2ccc(OCC)cc2s1)C(F)(F)F (stereo not drawn)
inactive: SK-OV-3 52.8 µM | SK-MEL-2 32.7 µM | SK-MEL-5 19.4 µM | SNB-19 51.4 µM | Hs-578T 38.7 µM | OVCAR-3 44.9 µM | EKVX 32.8 µM | HCC 2998 33.5 µM | 786-0 21.7 µM | SK-MEL-28 97.3 µM | CCRF-CEM 23.8 µM | BT-549 28.6 µM | HT-29 32.3 µM | NCI-H522 21.2 µM | K562 27.6 µM | T47D 26.9 µM

C/C1=C\CC[C@@]2(C)O[C@@H]2C[C@@H]2[C@H](C/C(C)=C/CC1)OC(=O)C21CC1
inactive: A498 > 100 µM | SK-OV-3 > 100 µM | SK-MEL-2 > 100 µM | IGROV-1 23.3 µM | SK-MEL-5 93.5 µM | SNB-19 > 100 µM | OVCAR-3 > 100 µM | EKVX > 100 µM | HCC 2998 > 100 µM | 786-0 74.5 µM | SK-MEL-28 > 100 µM | CCRF-CEM 20.6 µM | BT-549 44.9 µM | HT-29 > 100 µM | K562 21 µM | T47D > 100 µM | RPMI-8226 12.1 µM
